Reference: patent US20240101544A1, “INHIBITORS OF QPCTL AND QPCT” (priority 2022, published 2024)

Legend:
QPCTL [1] = biological target: T1, QPCTL (Homo sapiens (Human), UniProt Q9NXS2); test: QPCTL Enzymatic Activity Assay (coupled-enzyme fluorescent assay, H-Gln-AMC substrate); assay type: biochemical; settings: recombinant truncated human QPCTL 10-12 nM, 10 μM H-Gln-AMC; read-out: QPCTL Inhibition IC50
Description: Protein expression was induced when the bacterial culture OD600 was approximately 0.7 using 1 mM IPTG and the cells incubated at 20° C. for approximately 16 hours. The QPCTL was purified using nickel column purification, digested by TEV, followed by a second nickel column purification. The protein was further purified by size-exclusion chromatography using a Superdex™ 75 column. The final protein was concentrated using ultrafiltration tubes at a molecular weight cutoff of 10 kilodaltons and stored frozen in protein buffer (25 mM Tris pH 8.3, 150 mM NaCl).
QPCTL activity was measured in a coupled-enzyme assay using the QPCTL substrate, glutamine-7-amido-4-methylcoumarin (H-Gln-AMC, Bachem), which is converted to pyroglutamyl-AMC by QPCTL. Pyroglutamyl-AMC is then converted to the fluorescent molecule, AMC, by incubation with the human enzyme pyroglutamyl peptidase-1. […] Final concentrations of DMSO and test compounds were 2% and 30-100 μM, respectively. Following the incubation, H-Gln-AMC substrate was diluted in assay buffer and added to each well for a final concentration of 10 μM. The reaction was incubated for 60 min at 37° C., before stopping it by boiling at 100° C. for 5 minutes and cooling the plate at 4° C. for 3 minutes. […] Following incubation, the fluorescence was measured with a plate reader using excitation at 380 nm and emission at 460 nm. […] Concentration-response-curves and IC50 values (Table 17) were generated using curve fit software.
Target sequence in this assay (Q9NXS2 53-382): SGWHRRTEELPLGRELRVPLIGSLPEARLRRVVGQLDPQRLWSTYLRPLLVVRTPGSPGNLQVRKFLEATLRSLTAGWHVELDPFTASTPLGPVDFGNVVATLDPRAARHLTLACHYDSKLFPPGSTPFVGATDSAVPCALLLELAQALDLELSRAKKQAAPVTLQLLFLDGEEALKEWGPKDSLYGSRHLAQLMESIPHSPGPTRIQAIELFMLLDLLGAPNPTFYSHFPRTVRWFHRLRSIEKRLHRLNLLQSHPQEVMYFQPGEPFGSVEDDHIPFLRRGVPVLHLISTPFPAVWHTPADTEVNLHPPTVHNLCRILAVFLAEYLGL

QPCT (rhQPCT) = QPCT (rhQPCT) (Homo sapiens (Human), UniProt Q16769); test: QPCT Enzymatic Activity Assay (coupled-enzyme fluorescent assay, H-Gln-AMC substrate); assay type: biochemical; settings: rhQPCT 10-12 nM, 10 μM H-Gln-AMC; read-out: QPCT Inhibition IC50
Description: QPCT activity was measured in a coupled-enzyme assay using the QPCT substrate, glutamine-7-amido-4-methylcoumarin (H-Gln-AMC, Bachem), which is converted to pyroglutamyl-AMC by QPCT. Pyroglutamyl-AMC is then converted to the fluorescent molecule, AMC, by incubation with the human enzyme pyroglutamyl peptidase-1 (PGPEP-1). […] Following the incubation, H-Gln-AMC substrate was diluted in assay buffer and added to each well for a final concentration of 10 μM. The reaction was incubated for 60 min at 37° C., before stopping it by boiling at 100° C. for 5 minutes and cooling the plate at 4° C. for 3 minutes. […] Following incubation, the fluorescence was measured with a plate reader using excitation at 380 nm and emission at 460 nm. […] Concentration-response-curves and IC50 values (Table 17) were generated using Collaborative Drug Discovery software.

QPCTL [2] = biological target: T1, QPCTL; test: Inhibition of Cellular QPCTL Activity - Imaging Assay, CC2C6 anti-CD47 staining of DLD-1 cells; assay type: cell-based; settings: 72 hours, CC2C6 anti-CD47 high-content imaging
Description: Inhibition of Cellular QPCTL Activity—Imaging Assay
The cells were incubated for 72 hours at 37° C. and 5% CO2. […] After primary antibody staining, the cells were fixed with 4% paraformaldehyde in the incubation buffer for 15 minutes at room temperature. […] Cells were analyzed on a ImageXpress Pico Automated Cell Imaging System (Molecular Devices) using 10× objective (3×3 fields).
Target sequence in this assay (Q9NXS2 whole entry, the tested form may be a part): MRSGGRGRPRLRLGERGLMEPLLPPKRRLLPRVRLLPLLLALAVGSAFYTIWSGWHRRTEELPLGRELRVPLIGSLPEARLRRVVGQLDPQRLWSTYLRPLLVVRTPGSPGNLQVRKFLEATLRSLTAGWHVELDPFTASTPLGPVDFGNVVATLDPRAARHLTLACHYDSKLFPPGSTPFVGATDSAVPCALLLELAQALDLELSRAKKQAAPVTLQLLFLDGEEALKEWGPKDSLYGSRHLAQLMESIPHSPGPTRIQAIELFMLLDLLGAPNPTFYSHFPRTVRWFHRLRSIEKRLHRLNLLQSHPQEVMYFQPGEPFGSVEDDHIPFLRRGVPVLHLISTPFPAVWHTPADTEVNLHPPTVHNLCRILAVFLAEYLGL

Chain of QPCT (rhQPCT) (Q16769 29-361): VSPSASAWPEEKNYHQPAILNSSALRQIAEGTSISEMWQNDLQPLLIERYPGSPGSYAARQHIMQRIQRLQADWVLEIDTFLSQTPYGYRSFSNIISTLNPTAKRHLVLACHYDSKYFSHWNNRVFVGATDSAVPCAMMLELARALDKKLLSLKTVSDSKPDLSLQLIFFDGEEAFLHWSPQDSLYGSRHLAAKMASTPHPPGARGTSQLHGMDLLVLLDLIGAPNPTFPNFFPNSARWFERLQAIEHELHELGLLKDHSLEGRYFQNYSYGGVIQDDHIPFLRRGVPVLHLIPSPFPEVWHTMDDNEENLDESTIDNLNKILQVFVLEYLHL

SMILES | IC50 (QPCTL [1]) | IC50 (QPCT (rhQPCT)) | IC50 (QPCTL [2])
CN1CCC(Oc2ccc(-c3ccc(F)nc3)c(N3CCC(c4nncn4C)CC3)c2C#N)C1 (single isomer, unassigned) [Example 91, 3-(6-fluoropyridin-3-yl)-2-(4-(4-methyl-4H-1,2,4-triazol-3-yl)piperidin-1-yl)-6-((1-methylpyrrolidin-3-yl)oxy)benzonitrile] | < 100 nM | < 100 nM | 100 to 1000 nM
Cn1ccc(-c2ccc(-c3ccc(F)nc3)c(N3CCC(c4nncn4C)CC3)c2C#N)n1 [Example 43, 3-(6-fluoropyridin-3-yl)-6-(1-methyl-1H-pyrazol-3-yl)-2-(4-(4-methyl-4H-1,2,4-triazol-3-yl)piperidin-1-yl)benzonitrile] | < 100 nM | < 100 nM | < 100 nM
Cn1cnnc1C1CCN(c2c(-c3ccc(F)nc3)ccc(-c3ccnc(N)c3)c2C#N)CC1 [Example 44, 6-(2-aminopyridin-4-yl)-3-(6-fluoropyridin-3-yl)-2-(4-(4-methyl-4H-1,2,4-triazol-3-yl)piperidin-1-yl)benzonitrile] | < 100 nM | < 100 nM | < 100 nM
Cn1cnnc1C1CCN(c2c(-c3ccc(F)nc3)ccc(-c3cc[nH]n3)c2C#N)CC1 [Example 45, 3-(6-fluoropyridin-3-yl)-2-(4-(4-methyl-4H-1,2,4-triazol-3-yl)piperidin-1-yl)-6-(1H-pyrazol-3-yl)benzonitrile] | < 100 nM | < 100 nM | < 100 nM
Cc1cc(-c2cccc(C#N)c2N2CCC(c3nncn3C)CC2)cnn1 [Example 46, 2-(4-(4-methyl-4H-1,2,4-triazol-3-yl)piperidin-1-yl)-3-(6-methylpyridazin-4-yl)benzonitrile] | < 100 nM | < 100 nM | 100 to 1000 nM
CN(C)CCNc1ccc(-c2ccc(F)nc2)c(N2CCC(c3nncn3C)CC2)c1C#N [Example 51, 6-((2-(dimethylamino)ethyl)amino)-3-(6-fluoropyridin-3-yl)-2-(4-(4-methyl-4H-1,2,4-triazol-3-yl)piperidin-1-yl)benzonitrile] | < 100 nM | < 100 nM | 100 to 1000 nM
CN(C)CCn1cc(-c2ccc(-c3ccc(F)nc3)c(N3CCC(c4nncn4C)CC3)c2C#N)cn1 [Example 60, 6-(1-(2-(dimethylamino)ethyl)-1H-pyrazol-4-yl)-3-(6-fluoropyridin-3-yl)-2-(4-(4-methyl-4H-1,2,4-triazol-3-yl)piperidin-1-yl)benzonitrile] | < 100 nM | < 100 nM | < 100 nM
Cc1cc(-c2ccc(OCCN(C)C)c(C#N)c2N2CCC(c3nncn3C)CC2)cnn1 [Example 62, 6-(2-(dimethylamino)ethoxy)-2-(4-(4-methyl-4H-1,2,4-triazol-3-yl)piperidin-1-yl)-3-(6-methylpyridazin-4-yl)benzonitrile] | < 100 nM | 100 to 1000 nM | > 10000 nM
Cn1cnnc1C1CCN(c2c(-c3ccc(F)nc3)ccc(-c3cnn(C4CC4)c3)c2C#N)CC1 [Example 63, 6-(1-cyclopropyl-1H-pyrazol-4-yl)-3-(6-fluoropyridin-3-yl)-2-(4-(4-methyl-4H-1,2,4-triazol-3-yl)piperidin-1-yl)benzonitrile] | < 100 nM | < 100 nM | < 100 nM
Cn1cnnc1C1CCN(c2c(-c3ccc(F)nc3)ccc(-c3cnn4c3OCCC4)c2C#N)CC1 [Example 64, 6-(6,7-dihydro-5H-pyrazolo[5,1-b][1,3]oxazin-3-yl)-3-(6-fluoropyridin-3-yl)-2-(4-(4-methyl-4H-1,2,4-triazol-3-yl)piperidin-1-yl)benzonitrile] | < 100 nM | < 100 nM | < 100 nM
Cc1cc(-c2ccc(-c3cc[nH]n3)c(C#N)c2N2CCC(c3nncn3C)CC2)cnn1 [Example 65, 2-(4-(4-methyl-4H-1,2,4-triazol-3-yl)piperidin-1-yl)-3-(6-methylpyridazin-4-yl)-6-(1H-pyrazol-3-yl)benzonitrile] | < 100 nM | < 100 nM | > 10000 nM
Cn1ccc(-c2cc(F)c(-c3ccc(F)nc3)c(N3CCC(c4nncn4C)CC3)c2C#N)n1 [Example 131, 4-fluoro-3-(6-fluoropyridin-3-yl)-6-(1-methyl-1H-pyrazol-3-yl)-2-(4-(4-methyl-4H-1,2,4-triazol-3-yl)piperidin-1-yl)benzonitrile] | 1000 to 10000 nM | 100 to 1000 nM | 
Cn1cnnc1C1CCN(c2c(C#N)c(C3CC3)cc(F)c2-c2ccc(F)nc2)CC1 [Example 135, 6-cyclopropyl-4-fluoro-3-(6-fluoropyridin-3-yl)-2-(4-(4-methyl-4H-1,2,4-triazol-3-yl)piperidin-1-yl)benzonitrile] | 100 to 1000 nM | < 100 nM | 
Cn1cnnc1N1CCN(c2c(C#N)ccnc2-c2ccc(F)nc2)CC1 [Example 136, 6′-fluoro-3-(4-(4-methyl-4H-1,2,4-triazol-3-yl)piperazin-1-yl)-[2,3′-bipyridine]-4-carbonitrile] | < 100 nM | < 100 nM | 
COc1cnc(-c2ccc(F)nc2)c(N2CCC(c3nncn3C)CC2)c1C#N [Example 137, 6′-fluoro-5-methoxy-3-(4-(4-methyl-4H-1,2,4-triazol-3-yl)piperidin-1-yl)-[2,3′-bipyridine]-4-carbonitrile] | 1000 to 10000 nM | 100 to 1000 nM | 
Cn1ccc(-c2cnc(-c3ccc(F)nc3)c(N3CCC(c4nncn4C)CC3)c2C#N)n1 [Example 138, 6′-fluoro-5-(1-methyl-1H-pyrazol-3-yl)-3-(4-(4-methyl-4H-1,2,4-triazol-3-yl)piperidin-1-yl)-[2,3′-bipyridine]-4-carbonitrile] | > 10000 nM | 1000 to 10000 nM | 

The remaining lines, values ahead:

IC50 (QPCTL [1]) | IC50 (QPCT (rhQPCT)) | IC50 (QPCTL [2]) | SMILES
< 100 nM | < 100 nM | < 100 nM | Cn1cnnc1C1CCN(c2c(-c3ccc(F)nc3)ccc(OC3CCOC3)c2C#N)CC1 (single isomer, unassigned) [Example 88, 3-(6-fluoropyridin-3-yl)-2-(4-(4-methyl-4H-1,2,4-triazol-3-yl)piperidin-1-yl)-6-((tetrahydrofuran-3-yl)oxy)benzonitrile]
< 100 nM | < 100 nM | < 100 nM | CN1CCC(Oc2ccc(-c3ccc(F)nc3)c(N3CCC(c4nncn4C)CC3)c2C#N)C1 (single isomer, unassigned) [Example 90, 3-(6-fluoropyridin-3-yl)-2-(4-(4-methyl-4H-1,2,4-triazol-3-yl)piperidin-1-yl)-6-((1-methylpyrrolidin-3-yl)oxy)benzonitrile]
< 100 nM | < 100 nM | 100 to 1000 nM | Cn1cnnc1C1CCN(c2c(-c3ccc(F)nc3)ccc(-c3cnn(C4CCNCC4)c3)c2C#N)CC1 [Example 42, 3-(6-fluoropyridin-3-yl)-2-(4-(4-methyl-4H-1,2,4-triazol-3-yl)piperidin-1-yl)-6-(1-(piperidin-4-yl)-1H-pyrazol-4-yl)benzonitrile]
< 100 nM | < 100 nM | < 100 nM | Cc1cc(-c2cccc(C#N)c2N2CCC(c3nncn3C)CC2)cnc1F [Example 47, 3-(6-fluoro-5-methylpyridin-3-yl)-2-(4-(4-methyl-4H-1,2,4-triazol-3-yl)piperidin-1-yl)benzonitrile]
< 100 nM | < 100 nM | < 100 nM | Cc1cc(-c2ccc(-c3cnn(C)c3)c(C#N)c2N2CCC(c3nncn3C)CC2)cnn1 [Example 48, 6-(1-methyl-1H-pyrazol-4-yl)-2-(4-(4-methyl-4H-1,2,4-triazol-3-yl)piperidin-1-yl)-3-(6-methylpyridazin-4-yl)benzonitrile]
< 100 nM | < 100 nM | < 100 nM | Cc1cc(C#N)c(N2CCC(c3nncn3C)CC2)c(-c2ccc(F)nc2)c1 [Example 66, 3-(6-fluoropyridin-3-yl)-5-methyl-2-(4-(4-methyl-4H-1,2,4-triazol-3-yl)piperidin-1-yl)benzonitrile]
> 10000 nM | 100 to 1000 nM |  | Cn1cc(-c2cnc(-c3ccc(F)nc3)c(N3CCC(c4nncn4C)CC3)c2C#N)cn1 [Example 139, 6′-fluoro-5-(1-methyl-1H-pyrazol-4-yl)-3-(4-(4-methyl-4H-1,2,4-triazol-3-yl)piperidin-1-yl)-[2,3′-bipyridine]-4-carbonitrile]
